Measured values from ChEMBL document CHEMBL4000220, “Optimization of spirocyclic proline tryptophan hydroxylase-1 inhibitors” (Bioorg Med Chem Lett, 2017).
Blank lines part the entries; values can stand above or below the molecule they belong to.

Assays:
[1] = test system: Mus musculus; test: In vivo inhibition of TPH1 in mouse assessed as reduction in 5-HT level in intestinal mucosa at 50 mg/kg, po administered daily as single dose relative to control; type: functional
[2] = test system: Mus musculus; test: In vivo inhibition of TPH1 in mouse assessed as reduction in 5-HT level in intestinal mucosa at 10 mg/kg, po administered daily as single dose relative to control; type: functional
[3] = test system: Mus musculus; test: Prodrug activation in mouse assessed as (S)-8-(2-amino-6-((R)-1-(5-chloro-3'-sulfamoylbiphenyl-2-yl)-2,2,2-trifluoroethoxy)pyrimidin-4-yl)-2,8-diazaspiro[4.5]decane-3-carboxylic acid formation at 10 to 50 mg/kg, po administered as single dose; type: organism-based; details: in vivo
[4] = test system: Mus musculus; test: Prodrug activation in mouse assessed as (S)-8-(2-amino-6-((R)-1-(3'-tert-butyl-5-chlorobiphenyl-2-yl)-2,2,2-trifluoroethoxy)pyrimidin-4-yl)-2,8-diazaspiro[4.5]decane-3-carboxylic acid formation at 10 to 50 mg/kg, po administered as single dose; type: organism-based; details: in vivo
[5] = test system: Canis familiaris; test: (§1) Volume of distribution at steady state in beagle dog at 1 mg/kg, iv; type: ADME, organism-based, Canis lupus familiaris; details: in vivo
[6] = test system: Rattus norvegicus; test: Cmax in rat assessed as (S)-8-(2-amino-6-((R)-1-(5-chlorobiphenyl-2-yl)-2,2,2-trifluoroethoxy)pyrimidin-4-yl)-2,8-diazaspiro[4.5]decane-3-carboxylic acid level at 25 mg/kg, po; type: ADME, organism-based; parameters: dose 25 mg/kg, route oral; details: in vivo
[7] = test system: Mus musculus; test: Prodrug activation in mouse assessed as (S)-8-(2-amino-6-((R)-1-(5-chlorobiphenyl-2-yl)-2,2,2-trifluoroethoxy)pyrimidin-4-yl)-2,8-diazaspiro[4.5]decane-3-carboxylic acid formation at 10 to 50 mg/kg, po administered as single dose; type: organism-based; details: in vivo
[8] = test system: Rattus norvegicus; test: AUC (0 to last) in rat assessed as (S)-8-(2-amino-6-((R)-1-(5-chlorobiphenyl-2-yl)-2,2,2-trifluoroethoxy)pyrimidin-4-yl)-2,8-diazaspiro[4.5]decane-3-carboxylic acid level at 25 mg/kg, po; type: ADME, organism-based; parameters: dose 25 mg/kg, route oral, time 0 - last; details: in vivo
[9] = Clearance in rat at 1 mg/kg, iv; type: ADME, organism-based; details: in vivo
[10] = test system: Canis familiaris; test: Half life in beagle dog assessed as (S)-8-(2-amino-6-((R)-1-(5-chlorobiphenyl-2-yl)-2,2,2-trifluoroethoxy)pyrimidin-4-yl)-2,8-diazaspiro[4.5]decane-3-carboxylic acid level at 1 mg/kg, iv; type: ADME, organism-based, Canis lupus familiaris; details: in vivo
[11] = test system: Canis familiaris; test: (§2) Half life in beagle dog at 1 mg/kg, iv; type: ADME, organism-based, Canis lupus familiaris; details: in vivo
[12] = test system: Canis familiaris; test: Clearance in beagle dog at 1 mg/kg, iv relative to hepatic blood flow; type: ADME, organism-based, Canis lupus familiaris; details: in vivo
[13] = (§3) Half life in rat at 1 mg/kg, iv; type: ADME, organism-based; details: in vivo
[14] = test system: Rattus norvegicus; test: Clearance in rat at 1 mg/kg, iv relative to hepatic blood flow; type: ADME, organism-based; details: in vivo
[15] = test system: Canis familiaris; test: Cmax in beagle dog assessed as (S)-8-(2-amino-6-((R)-1-(5-chlorobiphenyl-2-yl)-2,2,2-trifluoroethoxy)pyrimidin-4-yl)-2,8-diazaspiro[4.5]decane-3-carboxylic acid level at 25 mg/kg, po; type: ADME, organism-based, Canis lupus familiaris; parameters: dose 25 mg/kg, route oral; details: in vivo
[16] = test system: Canis familiaris; test: AUC (0 to last) in beagle dog assessed as (S)-8-(2-amino-6-((R)-1-(5-chlorobiphenyl-2-yl)-2,2,2-trifluoroethoxy)pyrimidin-4-yl)-2,8-diazaspiro[4.5]decane-3-carboxylic acid level at 25 mg/kg, po; type: ADME, organism-based, Canis lupus familiaris; parameters: dose 25 mg/kg, time 0 - last, route oral; details: in vivo
[17] = (§4) Volume of distribution at steady state in rat at 1 mg/kg, iv; type: ADME, organism-based; details: in vivo, read-out: Vdss
[18] = test system: Mus musculus; test: Drug level in mouse treated with (S)-ethyl 8-(2-amino-6-((R)-1-(5-chloro-3'-methoxybiphenyl-2-yl)-2,2,2-trifluoroethoxy)pyrimidin-4-yl)-2,8-diazaspiro[4.5]decane-3-carboxylate at 10 to 50 mg/kg, po administered as single dose; type: ADME, organism-based; details: in vivo
[19] = target: T1, Tryptophan 5-hydroxylase 1 (Homo sapiens, UniProt P17752)
T1 sequence (P17752 whole entry): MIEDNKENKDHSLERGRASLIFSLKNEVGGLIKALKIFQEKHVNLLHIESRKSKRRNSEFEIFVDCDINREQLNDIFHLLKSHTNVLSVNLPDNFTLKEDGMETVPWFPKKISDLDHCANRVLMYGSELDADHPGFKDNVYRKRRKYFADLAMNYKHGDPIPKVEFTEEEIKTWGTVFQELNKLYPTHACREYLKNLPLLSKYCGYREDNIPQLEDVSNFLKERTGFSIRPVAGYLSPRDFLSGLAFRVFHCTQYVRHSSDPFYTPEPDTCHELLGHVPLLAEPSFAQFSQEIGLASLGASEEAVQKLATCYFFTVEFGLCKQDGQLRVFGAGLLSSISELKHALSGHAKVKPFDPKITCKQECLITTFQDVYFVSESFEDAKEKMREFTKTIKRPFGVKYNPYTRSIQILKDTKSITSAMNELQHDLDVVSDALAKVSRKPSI
Description: Inhibition of TPH1 (unknown origin)

[20] = as §1; type: ADME, organism-based, Canis lupus familiaris; details: beagle, in vivo, read-out: Vdss
[21] = Clearance in beagle dog at 1 mg/kg, iv; type: ADME, organism-based, Canis lupus familiaris; details: in vivo
[22] = target: T2, Tryptophan 5-hydroxylase 2 (Homo sapiens, UniProt Q8IWU9); test: Inhibition of TPH2 (unknown origin)
T2 sequence (Q8IWU9 whole entry): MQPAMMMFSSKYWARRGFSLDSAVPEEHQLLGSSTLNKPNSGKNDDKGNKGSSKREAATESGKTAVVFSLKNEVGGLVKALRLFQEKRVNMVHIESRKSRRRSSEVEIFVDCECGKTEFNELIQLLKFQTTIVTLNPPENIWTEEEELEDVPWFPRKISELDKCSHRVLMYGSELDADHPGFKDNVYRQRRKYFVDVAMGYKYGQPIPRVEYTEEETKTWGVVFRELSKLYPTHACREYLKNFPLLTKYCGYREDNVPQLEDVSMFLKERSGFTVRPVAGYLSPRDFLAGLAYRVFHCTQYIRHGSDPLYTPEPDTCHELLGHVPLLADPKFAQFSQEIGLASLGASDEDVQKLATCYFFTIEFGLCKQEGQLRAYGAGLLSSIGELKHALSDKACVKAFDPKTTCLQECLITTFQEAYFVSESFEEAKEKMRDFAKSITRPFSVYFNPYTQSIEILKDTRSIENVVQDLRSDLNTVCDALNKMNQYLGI

[23] = as §2; type: ADME, organism-based, Canis lupus familiaris; details: beagle, in vivo
[24] = test system: Mus musculus; test: Drug level in mouse treated with (S)-ethyl 8-(2-amino-6-((R)-1-(5-chlorobiphenyl-2-yl)-2,2,2-trifluoroethoxy)pyrimidin-4-yl)-2,8-diazaspiro[4.5]decane-3-carboxylate at 10 to 50 mg/kg, po administered as single dose; type: ADME, organism-based; details: in vivo
[25] = test system: Rattus norvegicus; test: as §3; type: ADME, organism-based; details: in vivo
[26] = test system: Rattus norvegicus; test: as §4; type: ADME, organism-based; details: in vivo
[27] = test system: Mus musculus; test: Prodrug activation in mouse assessed as (S)-8-(2-amino-6-((R)-1-(5-chloro-3'-(methylsulfonyl)biphenyl-2-yl)-2,2,2-trifluoroethoxy)pyrimidin-4-yl)-2,8-diazaspiro[4.5]decane-3-carboxylic acid formation at 10 to 50 mg/kg, po administered as single dose; type: organism-based; details: in vivo
[28] = test system: Mus musculus; test: Prodrug activation in mouse assessed as (S)-8-(2-amino-6-((R)-1-(5-chloro-3',5'-difluorobiphenyl-2-yl)-2,2,2-trifluoroethoxy)pyrimidin-4-yl)-2,8-diazaspiro[4.5]decane-3-carboxylic acid formation at 10 to 50 mg/kg, po administered as single dose; type: organism-based; details: in vivo

SMILES: CCOC(=O)[C@@H]1CC2(CCN(c3cc(O[C@H](c4ccc(Cl)cc4-c4cccc(S(N)(=O)=O)c4)C(F)(F)F)nc(N)n3)CC2)CN1
inhibition in vivo at 50 mg/kg [1]: 42% | inhibition in vivo at 10 mg/kg [2]: 15% | Drug metabolism [3]: Metabolite_Detected

SMILES: CCOC(=O)[C@@H]1CC2(CCN(c3cc(O[C@H](c4ccc(Cl)cc4-c4cccc(C(C)(C)C)c4)C(F)(F)F)nc(N)n3)CC2)CN1
inhibition in vivo at 50 mg/kg [1]: 59% | inhibition in vivo at 10 mg/kg [2]: 33% | Drug metabolism [4]: Metabolite_Detected

SMILES: COc1cccc(-c2cc(Cl)ccc2[C@@H](Oc2cc(N3CCC4(CC3)CN[C@H](C(=O)O)C4)nc(N)n2)C(F)(F)F)c1
Drug metabolism [18]: Metabolite_Detected | IC50 [19]: 19 nM

SMILES: CCOC(=O)[C@@H]1CC2(CCN(c3cc(O[C@H](c4ccc(Cl)cc4-c4cccc(S(C)(=O)=O)c4)C(F)(F)F)nc(N)n3)CC2)CN1
inhibition in vivo at 50 mg/kg [1]: 38% | Drug metabolism [27]: Metabolite_Detected

More lines, main results first:

Vdss [5]: 2.34 L/kg | Cmax [6]: 722 ng/mL | Drug metabolism [7]: Metabolite_Detected | AUClast [8]: 5374 ng·h/mL | clearance [9]: 106 mL/min/kg | t1/2 [10]: 7.59 h | t1/2 [11]: 5.05 h | CL [12]: 46% | half-life [13]: 3.18 h | CL [14]: > 100% | Cmax [15]: 2797 ng/mL | AUClast [16]: 32398 ng·h/mL | Vd [17]: 12.7 L/kg
SMILES: CCOC(=O)[C@@H]1CC2(CCN(c3cc(O[C@H](c4ccc(Cl)cc4-c4ccccc4)C(F)(F)F)nc(N)n3)CC2)CN1 [RODATRISTAT ETHYL]
inhibition in vivo at 50 mg/kg [1]: 71% | inhibition in vivo at 10 mg/kg [2]: 55%

Vd [20]: 0.24 L/kg | clearance [21]: 1.2 mL/min/kg | IC50 [22]: 7 nM | half-life [23]: 4.8 h | CL [12]: 4% | Drug metabolism [24]: Metabolite_Detected | t1/2 [25]: 12.1 h | CL [14]: 1.2% | IC50 [19]: 33 nM | Vdss [26]: 7.8 L/kg
SMILES: Nc1nc(O[C@H](c2ccc(Cl)cc2-c2ccccc2)C(F)(F)F)cc(N2CCC3(CC2)CN[C@H](C(=O)O)C3)n1 [RODATRISTAT]

Drug metabolism [28]: Metabolite_Detected
SMILES: CCOC(=O)[C@@H]1CC2(CCN(c3cc(O[C@H](c4ccc(Cl)cc4-c4cc(F)cc(F)c4)C(F)(F)F)nc(N)n3)CC2)CN1
inhibition in vivo at 50 mg/kg [1]: 37% | inhibition in vivo at 10 mg/kg [2]: 30%
